Results on six molecules are retold here after patent publication US6964949B2, “Pharmaceutical compositions for promoting the growth of gram-positive bacilli and increasing the acidity in the vagina and the use thereof” (Shanghai Jiao Da Onlly Co., Ltd., priority 2000, dated 2005).

What all share (type): cell-based
Conditions in all cases: 1.0% yeast extract, pH 6.2, candle jar, 37° C.

Experiment [1] deals with vaginal secretion specimen of a patient suffering from typical bacterial vaginosis. The experiment can be described thus: Experiment Example 2: pH of culture samples (production of acids). The text has this: (§1) • (1)The preparation of the compositions: Different saccharides were used respectively to prepare the following compositions according to the methods mentioned above: glucose, fructose, galactose, mannose, maltose, sucrose, lactose, lactulose, mycose, cellobiose, melibiose, melitose, malto-oligosaccharide, isomaltooligosaccharide and fructooligosaccharide, dextrin, starch, and glycogen: • A. 5% glucose, 1.0% yeast extract, 1.6% xanthan gum, pH adjusted to 6.2; • B. 5% fructose, 1.0% yeast extract, 1.6% xanthan gum, pH adjusted to 6.2; • C. 5% galactose, 1.0% yeast extract, 1.6% xanthan gum, pH adjusted to 6.2; • D. 5% mannose, 1.0% yeast extract, 1.6% xanthan gum, pH adjusted to 6.2; • E. 10.0% maltose, 1.0% yeast extract, 1.6% xanthan gum, pH adjusted to 6.2; • F. 10.0% sucrose, 1.0% yeast extract, 1.6% xanthan gum, pH adjusted to 6.2; • G. 10.0% lactose, 1.0% yeast extract, 1.6% xanthan gum, pH adjusted to 6.2; • H. 10.0% lactulose, 1.0% yeast extract, 1.6% xanthan gum, pH adjusted to 6.2; • I. 10.0% cellobiose, 1.0% yeast extract, 1.6% xanthan gum, pH adjusted to 6.2; • J. 10.0% mycose, 1.0% yeast extract, 1.6% xanthan gum, pH adjusted to 6.2; • K. 10.0% melibiose, 1.0% yeast extract, 1.6% xanthan gum, pH adjusted to 6.2; • L. 10.0% melitose, 1.0% yeast extract, 1.6% xanthan gum, pH adjusted to 6.2; • M. 10.0% maltooligosaccharide, 1.0% yeast extract, 1.6% xanthan gum, pH adjusted to 6.2; • N. 10.0% isomaltooligosaccharide, 1.0% yeast extract, 1.6% xanthan gum, pH adjusted to 6.2; • O. 10.0% fructooligosaccharide, 1.0% yeast extract, 1.6% xanthan gum, pH adjusted to 6.2; • P. 10.0% dextrin, 1.0% yeast extract, 0.5% xanthan gum, pH adjusted to 6.2; • Q. 10.0% starch, 1.0% yeast extract, pH adjusted to 6.2; • R. 10.0% glycogen, 1.0% yeast extract, 1.6% xanthan gum, pH adjusted to 6.2. • (2)The preparation of the test tubes: The compositions prepared above were filled into test tubes, with each tube containing 5 ml, sterilized, and kept until use for experiment. • (3) Specimen suspension: Vaginal secretion was taken from one of the patients suffering from typical bacterial vagmosis with a cotton swab, then the swab was washed in 2 ml sterilized Trypcase-soy Broth immediately, and thus the specimen suspension was ready. […] Then the tubes were placed in a candle jar and cultivated at 37° C. After 24 hours and 48 hours' culture, culture samples were taken respectively from each of the tubes, then the Gram smears of the samples were observed and the pH values of culture samples were tested. […] Meanwhile the pH values in most of the composition tubes decreased to different levels. […] And maltose and sucrose exert better effect in promoting the growth of Gram-positive bacilli and the production of acids than that of the other kinds of oligosaccharides.

In the next experiment the test system is Gram-negative bacilli. The experiment can be described thus: Experiment Example 2: comparison of saccharides, specimen culture, Gram smear.
Excerpt: as §1

The subject of another experiment is Gram-negative cocci. Described as above.
Excerpt: as §1

The next experiment concerns Gram-positive cocci. The description is as above.
Excerpt: as §1

Another experiment has as its system Gram-positive bacilli. The experiment is described as above.
Excerpt: as §1

The mark [2] stands for this setting: 10.0% saccharide, 1.6% xanthan gum (dextrin 0.5%, starch none).
[3] abbreviates: 5% saccharide, 1.6% xanthan gum.

Take `OC[C@H]1O[C@@H](O[C@@H]2[C@@H](CO)OC(O)(CO)[C@H]2O)[C@H](O)[C@@H](O)[C@H]1O` (mixture of isomers) [Lactulose, lactulose]: in experiment [1] (setting [2]), the “pH, 24 hours-culture” value is given as 5.8-6.2 and the “pH, 48 hours-culture” value came out at 6.2. In the experiment on Gram-negative bacilli (setting [2]), the “Bacteria G − b (Gram-negative bacilli), 24 hours-culture” value (“Bacteria G − b … 24 hours-culture” for short) was “G − b, + (1-9 bacteria per field of vision under oil-immersion lens)” and the “Bacteria G − b (Gram-negative bacilli), 48 hours-culture” value (“Bacteria G − b … 48 hours-culture” below) is “G − b, + (1-9 bacteria per field of vision under oil-immersion lens)”. Further, in the experiment with Gram-negative cocci (setting [2]), the “Bacteria G − c (Gram-negative cocci), 24 hours-culture” value (shortened to “Bacteria G − c … 24 hours-culture”) is given as “G − c, − (No or less than one bacterium per field of version under oil-immersion lens)” and the “Bacteria G − c (Gram-negative cocci), 48 hours-culture” value (shortened to “Bacteria G − c … 48 hours-culture”) is “G − c, − (No or less than one bacterium per field of version under oil-immersion lens)”. In the experiment with Gram-positive cocci (setting [2]), the “Bacteria G + c (Gram-positive cocci), 24 hours-culture” value (shortened to “Bacteria G + c … 24 hours-culture”) is on record as “G + c, + (1-9 bacteria per field of vision under oil-immersion lens)” and the “Bacteria G + c (Gram-positive cocci), 48 hours-culture” value (shortened to “Bacteria G + c … 48 hours-culture”) was “G + c, + (1-9 bacteria per field of vision under oil-immersion lens)”. Besides, in the experiment on Gram-positive bacilli (setting [2]), the “Bacteria G + b (Gram-positive bacilli), 24 hours-culture” value (shortened to “Bacteria G + b … 24 hours-culture”) was “G + b, +++ (About 100 bacteria or more per field vision under oil-immersion lens, even uncountable)” and the “Bacteria G + b (Gram-positive bacilli), 48 hours-culture” value (“Bacteria G + b … 48 hours-culture” for short) is recorded as “G + b, ++ (About 10-99 bacteria per field of vision under oil-immersion lens)”.
For `O=C[C@H](O)[C@@H](O)[C@H](O[C@@H]1O[C@H](CO)[C@@H](O)[C@H](O)[C@H]1O)[C@H](O)CO` [Cellobiose, cellobiose], in experiment [1] (setting [2]), the “pH, 24 hours-culture” value is 5.8 and the “pH, 48 hours-culture” value was 5.8. Also, in the experiment on Gram-negative bacilli (setting [2]), the “Bacteria G − b … 24 hours-culture” value was “G − b, + (1-9 bacteria per field of vision under oil-immersion lens)” and the “Bacteria G − b … 48 hours-culture” value is listed as “G − b, + (1-9 bacteria per field of vision under oil-immersion lens)”. In the experiment with Gram-negative cocci (setting [2]), the “Bacteria G − c … 24 hours-culture” value was “G − c, − (No or less than one bacterium per field of version under oil-immersion lens)” and the “Bacteria G − c … 48 hours-culture” value is “G − c, − (No or less than one bacterium per field of version under oil-immersion lens)”. In the experiment with Gram-positive cocci (setting [2]), the “Bacteria G + c … 24 hours-culture” value is given as “G + c, + (1-9 bacteria per field of vision under oil-immersion lens)” and the “Bacteria G + c … 48 hours-culture” value is reported as “G + c, + (1-9 bacteria per field of vision under oil-immersion lens)”. Further, in the experiment with Gram-positive bacilli (setting [2]), the “Bacteria G + b … 24 hours-culture” value is “G + b, ++ (About 10-99 bacteria per field of vision under oil-immersion lens)” and the “Bacteria G + b … 48 hours-culture” value is “G + b, ++ (About 10-99 bacteria per field of vision under oil-immersion lens)”.
In the case of `O=C(CO)[C@@H](O)[C@H](O)[C@H](O)CO` [Fructose, fructose], in experiment [1] (setting [3]), the “pH, 24 hours-culture” value is 5.4-5.8 and the “pH, 48 hours-culture” value is listed as 5.4-5.8. Besides, in the experiment on Gram-negative bacilli (setting [3]), the “Bacteria G − b … 24 hours-culture” value is listed as “G − b, + (1-9 bacteria per field of vision under oil-immersion lens)” and the “Bacteria G − b … 48 hours-culture” value is “G − b, + (1-9 bacteria per field of vision under oil-immersion lens)”. Besides, in the experiment with Gram-negative cocci (setting [3]), the “Bacteria G − c … 24 hours-culture” value is “G − c, − (No or less than one bacterium per field of version under oil-immersion lens)” and the “Bacteria G − c … 48 hours-culture” value was “G − c, − (No or less than one bacterium per field of version under oil-immersion lens)”. In the experiment with Gram-positive cocci (setting [3]), the “Bacteria G + c … 24 hours-culture” value is reported as “G + c, + (1-9 bacteria per field of vision under oil-immersion lens)” and the “Bacteria G + c … 48 hours-culture” value is reported as “G + c, + (1-9 bacteria per field of vision under oil-immersion lens)”. Also, in the experiment on Gram-positive bacilli (setting [3]), the “Bacteria G + b … 24 hours-culture” value is recorded as “G + b, ++ (About 10-99 bacteria per field of vision under oil-immersion lens)” and the “Bacteria G + b … 48 hours-culture” value is reported as “G + b, +++ (About 100 bacteria or more per field vision under oil-immersion lens, even uncountable)”.
With `O=C[C@H](O)[C@@H](O)[C@@H](O)[C@H](O)CO` [Galactose, galactose], in experiment [1] (setting [3]), the “pH, 24 hours-culture” value amounted to 6.7 and the “pH, 48 hours-culture” value worked out at 6.7. In addition, in the experiment on Gram-negative bacilli (setting [3]), the “Bacteria G − b … 24 hours-culture” value was “G − b, − (No or less than one bacterium per field of version under oil-immersion lens)” and the “Bacteria G − b … 48 hours-culture” value is on record as “G − b, + (1-9 bacteria per field of vision under oil-immersion lens)”. Moreover, in the experiment with Gram-negative cocci (setting [3]), the “Bacteria G − c … 24 hours-culture” value is “G − c, − (No or less than one bacterium per field of version under oil-immersion lens)” and the “Bacteria G − c … 48 hours-culture” value is recorded as “G − c, − (No or less than one bacterium per field of version under oil-immersion lens)”. Also, in the experiment with Gram-positive cocci (setting [3]), the “Bacteria G + c … 24 hours-culture” value was “G + c, ++ (About 10-99 bacteria per field of vision under oil-immersion lens)” and the “Bacteria G + c … 48 hours-culture” value was “G + c, ++ (About 10-99 bacteria per field of vision under oil-immersion lens)”. Moreover, in the experiment on Gram-positive bacilli (setting [3]), the “Bacteria G + b … 24 hours-culture” value is “G + b, ++ (About 10-99 bacteria per field of vision under oil-immersion lens)” and the “Bacteria G + b … 48 hours-culture” value was “G + b, + (1-9 bacteria per field of vision under oil-immersion lens)”.
On to `OC[C@H]1O[C@@H](O[C@H]2[C@H](O)[C@@H](O)C(O)O[C@@H]2CO)[C@H](O)[C@@H](O)[C@H]1O` (stereo partly drawn) [Lactose, lactose], for which, in experiment [1] (setting [2]), the “pH, 24 hours-culture” value is listed as 5.8 and the “pH, 48 hours-culture” value is 5.1-5.4. In addition, in the experiment with Gram-negative bacilli (setting [2]), the “Bacteria G − b … 24 hours-culture” value is listed as “G − b, + (1-9 bacteria per field of vision under oil-immersion lens)” and the “Bacteria G − b … 48 hours-culture” value was “G − b, + (1-9 bacteria per field of vision under oil-immersion lens)”. In the experiment on Gram-negative cocci (setting [2]), the “Bacteria G − c … 24 hours-culture” value is reported as “G − c, − (No or less than one bacterium per field of version under oil-immersion lens)” and the “Bacteria G − c … 48 hours-culture” value is listed as “G − c, − (No or less than one bacterium per field of version under oil-immersion lens)”. In addition, in the experiment on Gram-positive cocci (setting [2]), the “Bacteria G + c … 24 hours-culture” value is on record as “G + c, +++ (About 100 bacteria or more per field vision under oil-immersion lens, even uncountable)” and the “Bacteria G + c … 48 hours-culture” value is given as “G + c, + (1-9 bacteria per field of vision under oil-immersion lens)”. In the experiment on Gram-positive bacilli (setting [2]), the “Bacteria G + b … 24 hours-culture” value was “G + b, ++ (About 10-99 bacteria per field of vision under oil-immersion lens)” and the “Bacteria G + b … 48 hours-culture” value is listed as “G + b, ++ (About 10-99 bacteria per field of vision under oil-immersion lens)”.
In the case of `OC[C@H]1O[C@H](OCC2O[C@@H](O)[C@H](O)[C@@H](O)[C@@H]2O)[C@H](O)[C@@H](O)[C@H]1O` (stereo partly drawn) [Melibiose, melibiose], in experiment [1] (setting [2]), the “pH, 24 hours-culture” value was 6.2 and the “pH, 48 hours-culture” value is reported as 5.8. Further, in the experiment on Gram-negative bacilli (setting [2]), the “Bacteria G − b … 24 hours-culture” value was “G − b, ++ (About 10-99 bacteria per field of vision under oil-immersion lens)” and the “Bacteria G − b … 48 hours-culture” value was “G − b, ++ (About 10-99 bacteria per field of vision under oil-immersion lens)”. Moreover, in the experiment with Gram-negative cocci (setting [2]), the “Bacteria G − c … 24 hours-culture” value is recorded as “G − c, + (1-9 bacteria per field of vision under oil-immersion lens)” and the “Bacteria G − c … 48 hours-culture” value is “G − c, − (No or less than one bacterium per field of version under oil-immersion lens)”. In addition, in the experiment on Gram-positive cocci (setting [2]), the “Bacteria G + c … 24 hours-culture” value was “G + c, + (1-9 bacteria per field of vision under oil-immersion lens)” and the “Bacteria G + c … 48 hours-culture” value was “G + c, + (1-9 bacteria per field of vision under oil-immersion lens)”. In the experiment on Gram-positive bacilli (setting [2]), the “Bacteria G + b … 24 hours-culture” value was “G + b, + (1-9 bacteria per field of vision under oil-immersion lens)” and the “Bacteria G + b … 48 hours-culture” value was “G + b, ++ (About 10-99 bacteria per field of vision under oil-immersion lens)”.
